ChEMBL document CHEMBL4825727, “Cytotoxic oxidovanadium(IV) complexes of tridentate halogen-substituted Schiff bases: First dinuclear V(IV) complexes with O → VIV = O → VIV = O core” (Bioorg Med Chem Lett, 2021)
pIC50: −log10 of the molar value.

Each molecule was assayed on MCF7 (assay: Cytotoxicity against human MCF7 cells assessed as reduction in cell viability measured after 48 hrs by MTT assay). Conditions: MCF7, 48 h.
Type: functional, cell-based

**Q.** How did the pIC50 turn out when `Oc1ccc(Cl)cc1/C=N/CCc1ccccn1` was run?
**A.** Its pIC50 is 4.35.

**Q.** With `Oc1ccc(Br)cc1/C=N/CCc1ccccn1` as the molecule, how does the pIC50 read?
**A.** The pIC50 was 4.38.

**Q.** With `Oc1c(Br)cc(Cl)cc1/C=N/CCc1ccccn1` as the molecule, how does the pIC50 read?
**A.** Its pIC50 is 4.32.

**Q.** With `Oc1ccccc1/C=N/CCc1ccccn1` as the molecule, how does the pIC50 read?
**A.** Its pIC50 is less than 4.00.

The molecules below were run on A2780 (assay: Cytotoxicity against human A2780 cells assessed as reduction in cell viability measured after 48 hrs by MTT assay). Conditions: A2780, 48 h.
Type: functional, cell-based

**Q.** With `Oc1ccc(Cl)cc1/C=N/CCc1ccccn1` as the molecule, how does the pIC50 read?
**A.** The pIC50 was 4.29.

**Q.** `Oc1ccc(Br)cc1/C=N/CCc1ccccn1` was tested. Which pIC50 did it give?
**A.** The pIC50 was 4.30.

**Q.** How did the pIC50 turn out when `Oc1c(Br)cc(Cl)cc1/C=N/CCc1ccccn1` was run?
**A.** Its pIC50 is 4.32.

**Q.** `Oc1ccccc1/C=N/CCc1ccccn1` was tested. Which pIC50 did it give?
**A.** The pIC50 was less than 4.00.

These molecules were tested on PC-3 (assay: Cytotoxicity against human PC-3 cells assessed as reduction in cell viability measured after 48 hrs by MTT assay). Conditions: PC-3, 48 h.
Type: functional, cell-based

**Q.** `Oc1ccc(Cl)cc1/C=N/CCc1ccccn1` was tested. Which pIC50 did it give?
**A.** The pIC50 was 3.96.

**Q.** How did the pIC50 turn out when `Oc1ccc(Br)cc1/C=N/CCc1ccccn1` was run?
**A.** Its pIC50 is 3.97.

**Q.** How did the pIC50 turn out when `Oc1c(Br)cc(Cl)cc1/C=N/CCc1ccccn1` was run?
**A.** Its pIC50 is 4.08.

**Q.** How did the pIC50 turn out when `Oc1ccccc1/C=N/CCc1ccccn1` was run?
**A.** Its pIC50 is less than 4.00.
